Compared with `COc1ccc(C[C@@H]2COc3ccc(OCc4ccc5ccccc5n4)cc3[C@H]2O)cc1OC` (relative stereo), `COc1ccc(-c2ccc(COc3cccc4cc(NS(=O)(=O)C(F)(F)F)ccc34)c(F)c2)cc1` is lower in melting point: 175 °C for the first, 108 to 111 °C for the second.

Compared with `O=C(O)c1ccc2c(c1)COCC2`, `CCOC(=O)c1cnc2n(c1=O)C(C)CCC2=NNC(=O)c1ccc2c(c1)OCO2` (stereo not given) is higher in melting point: 140 to 142 °C for the first, 183 to 185 °C for the second.

Compared with `CCN(CC)CCCNc1ncc2cc(-c3c(Cl)cccc3Cl)c(N=CN(C)C)nc2n1`, `CC(=O)Nc1nc2c(C)cnc(-c3cccc([N+](=O)[O-])c3)n2n1` is higher in melting point: 100 to 104 °C for the first, 245 to 247 °C for the second.

Compared with `CCOC(=O)C(C(=O)OCC)C1c2ccccc2C(F)(F)C(F)(F)c2ccccc21`, `CCOC(=O)C(Oc1ccc(C(=O)CBr)cc1)C(=O)OCC` is lower in melting point: 144 to 146 °C for the first, 55 to 58 °C for the second.

First: CC(=O)OCc1c(C(=O)C(=O)O)c2cc(-c3ccc(OC(F)(F)F)cc3)ccc2n1Cc1ccccc1
Second: COc1ccc2c(c1)c1c(n2Cc2ccccc2)CCCC1C(=O)O (stereo not given)
The melting point of the first is lower: 85 to 86 °C for the first, 179 to 183 °C for the second.

First: O=C(Cc1ccccc1Cl)Nc1ccc(C(=O)Oc2ccccc2)c(Cl)c1
Second: Cn1c(CNC(=O)c2cc3ccccc3[nH]2)c(-c2ccccc2)c2cc(Cl)ccc2c1=O
The melting point of the first is lower: 160 to 163 °C for the first, > 305 °C for the second.

Compared with `COC(=O)c1nc(OC)sc1-c1ccccc1`, `COC(=O)c1ccccc1CS(=O)(=O)NC(=O)Cc1nc(OC)cc(OC)n1` is higher in melting point: 86 to 88 °C for the first, 98 to 101 °C for the second.

Compared with `CCCc1nc2cc(Cl)c(S(N)(=O)=O)cc2[nH]1`, `Cn1c(=O)cc(CCCl)c2cc(Cl)ccc21` is lower in melting point: 230 to 234 °C for the first, 120 to 122 °C for the second.

Going from `Cc1oc2c(Br)cccc2c1C` to `Cc1nc(Nc2ccc(F)cc2)nc(Br)c1C`, the melting point rises from 33 °C to 123 °C.

`COc1cc(CN2C(=O)C3(COc4cc5c(cc43)OCCO5)c3ccccc32)ccc1F` (stereo not given) and `O=C1N(CC2COCCO2)c2ccccc2C12COc1cc3c(cc12)OCC3` (stereo not given) cannot be ordered by melting point: 161 to 163 °C for the first, 162 to 164 °C for the second.

Compared with `CCOc1nc2c(cnn2CC)nc1C(=O)NN1CCCCC1`, `CNC(=O)n1sc(OC2CCCCC2)nc1=O` is higher in melting point: 114 to 115 °C for the first, 121 °C for the second.

First: CCOC(=O)c1c(C)nc(-c2ccccc2)nc1-c1ccc(OC(C)=O)c([N+](=O)[O-])c1
Second: CCOC(=O)c1ccc(-c2nnc(-c3ccccc3N)o2)cc1
The melting point of the first is lower: 147 to 148 °C for the first, 174 to 175 °C for the second.

Compared with `CC(C#N)(c1ccc(Cl)c(C(F)(F)F)c1)c1ccc([N+](=O)[O-])cc1Cl` (stereo not given), `N#Cc1cc(C(F)(F)F)[nH]c1-c1ccc(Br)o1` is higher in melting point: 162 °C for the first, 224 to 226 °C for the second.

First: COC1CCC2(C)C(=CCC3C2CCC2(C)C(C(C)=O)CCC32)C1 (stereo not given)
Second: COc1cc2c(c(Cl)c1Cl)SC(C1CCCCC1)C2O (stereo not given)
The melting point of the first is lower: 123 to 124 °C for the first, 166 to 167 °C for the second.

First: CCOc1nn(-c2ccc(C(F)(F)F)cc2)cc1CCCOc1ccccc1CC(=O)O
Second: Cc1cc(OCc2cn(-c3ccc(C(F)(F)F)cn3)nc2C)ccc1CCC(=O)O
The melting point of the first is lower: 114 to 115 °C for the first, 144 to 145 °C for the second.

First: CCCc1c(OCCCCCC(=O)NCCc2ccncc2)ccc(C(C)=O)c1O
Second: CCCc1c(OCCCCCCc2cccc(O)c2O)ccc(C(=O)O)c1O
The melting point of the first is lower: 80 to 83 °C for the first, 147 to 150 °C for the second.

First: Cc1oc(-c2ccccc2)nc1Cc1cc2cc(CCCC3OC(=O)NC3=O)ccc2o1 (stereo not given)
Second: Cc1nc2ccc3ccc(CNc4ccc(C(=O)O)c(F)c4)cc3c2c(=O)[nH]1
The melting point of the first is lower: 184 to 185 °C for the first, > 250 °C for the second.

Compared with `COC(=O)C1=C(C)NC(C)=C(C(=O)OCCCC#N)C1c1ccccc1[N+](=O)[O-]` (stereo not given), `COC(=O)c1ccc2[nH]c3cnc(C(=O)OC)c(C)c3c2c1` is higher in melting point: 48 to 51 °C for the first, 199 to 204 °C for the second.

First: CCCCOc1c(CNC(=O)OC(C)(C)C)n(CC(C)C)c(=O)c2ccc(-c3cccs3)cc12
Second: CCCc1c(O)c(C(C)=O)cc(Br)c1OCCCOc1c(C(C)=O)ccc(OCC(=O)O)c1CCC
The melting point of the first is higher: 130 to 131 °C for the first, 129 to 130 °C for the second.

First: O=C(OCc1ccccc1)N1CCC2(CC1)CC(=O)N(OC[N+](=O)[O-])C2=O
Second: CC(=O)n1[nH]c(=O)n(-c2ccccc2)c1=O
The melting point of the first is lower: 137 to 139 °C for the first, 215 to 218 °C for the second.

Compared with `COc1ccccc1SC(CC(C)C)c1c(O)cc(-c2ccccc2)oc1=O` (stereo not given), `O=C1C(Cl)=C(c2ccccc2)C(=O)c2ccccc21` is higher in melting point: 75 to 78 °C for the first, 111 to 112 °C for the second.

First: O=[N+]([O-])N=c1ccccn1Cc1ccc(Cl)nc1
Second: O=S(=O)(Nc1ccc(Cl)nc1I)c1ccccc1
The melting point of the first is higher: 209 to 212 °C for the first, 132 °C for the second.

First: Cc1noc(NC(=O)N2CCN(c3nccc(-c4ccc(F)c(F)c4)n3)CC2)c1C
Second: Nc1c(F)c(N2CCC(n3ccnn3)C2)c(F)c2c1c(=O)c(C(=O)O)cn2-c1ccc(F)cc1F (stereo not given)
The melting point of the first is lower: 214 to 215 °C for the first, 308 to 309 °C for the second.

First: Cc1cc(Cc2n[nH]c(=O)c3ccccc23)cc(C)n1
Second: COc1cc(C)c(C=O)cc1OCc1ccccc1
The melting point of the first is higher: 229 to 230 °C for the first, 107 to 109 °C for the second.

Compared with `Cc1onc(NS(=O)(=O)c2cccc([N+](=O)[O-])c2)c1Br`, `CCCCCCCCCC(C)NC(=O)C=Cc1cccc([N+](=O)[O-])c1` (stereo not given) is lower in melting point: 137 to 139 °C for the first, 81 to 83 °C for the second.

First: CC(C)(C)SC[C@@H]1NC(=O)[C@@H](CSSC[C@@H]2NC(=O)[C@@H](CSC(C)(C)C)NC2=O)NC1=O
Second: COCC(F)(F)c1nc2nc(C)c(F)cc2cc1C(=O)C1C(=O)C2CCC(C2)C1=O (stereo not given)
The melting point of the first is higher: 278 °C for the first, 177 to 180 °C for the second.

First: C/C(=C\c1ccc(OCc2nc(-c3ccc(C(F)(F)F)cc3)oc2C)cc1)Cn1oc(=O)[nH]c1=O
Second: CC(=O)N1CCc2c(c3ccc(-n4ccc(OCc5ccc(F)cn5)cc4=O)cc3n2C)C1
The melting point of the first is lower: 90 to 91 °C for the first, 220 to 224 °C for the second.

First: O=c1c2ccccc2oc2cc(OCC(O)CCl)cc(O)c12 (stereo not given)
Second: CCn1cc(C(=O)O)c(=O)c2cc(F)c(N3CCNC(c4cc5ccccc5o4)C3)cc21 (stereo not given)
The melting point of the first is lower: 144 °C for the first, 226 to 228 °C for the second.

First: CCCn1c(=O)n(CC(C)=O)c(=O)c2[nH]c(C34CC5CC(CC3C5)C4)nc21
Second: CCCNC1=NS(=O)(=O)c2c(sc(C)c2C#N)N1C(=O)OCC
The melting point of the first is higher: 181 to 184 °C for the first, 175 to 179 °C for the second.

First: CN(c1ccccc1)c1nc(Cl)nc2sccc12
Second: CNC(=O)OC1c2ccccc2C(=O)N1c1ccc2ccc(Cl)nc2n1 (stereo not given)
The melting point of the first is lower: 167 to 168 °C for the first, 260 °C for the second.

First: C(=Cc1ccc(-c2nnc(-c3ccccc3)o2)cc1)c1ccc(-c2cnn(-c3ccccc3)n2)cc1
Second: CCCCc1cc2ccccc2c(Oc2ccc(/C=C/C(=O)O)cc2)c1-c1ccccc1
The melting point of the first is higher: 209 to 210 °C for the first, 160 to 161 °C for the second.

Compared with `O=C1Cc2ccccc2SN(CCO)C1`, `CN(C)c1[nH]c(=S)n(C2CCc3ccccc3C2)c1N(C)C` (stereo not given) is higher in melting point: 173 to 175 °C for the first, 182 to 184 °C for the second.

Compared with `C=CCNc1nc(NCC=C)c2scc(C)c2n1`, `Cc1nc(COc2ccc3nc(N)c4nc5n(c4c3c2)C(C)COC5)cs1` (stereo not given) is higher in melting point: 77 to 80 °C for the first, 105 to 107 °C for the second.

First: Brc1cncc(C2CCCCN2)c1 (stereo not given)
Second: O=[N+]([O-])c1ccc(Cl)cc1NC1CCCC1
The melting point of the first is higher: 97 to 97.5 °C for the first, 75 °C for the second.

First: COc1ccc(-c2cc(O)n3nccc3n2)cc1OC
Second: COc1cc(Cc2c(N)nc(N)nc2Cl)cc(OC)c1N
The melting point of the first is higher: 268 to 270 °C for the first, 222 to 224 °C for the second.

Compared with `Clc1ccccc1CSc1nnc(-c2ccc3c(c2)CCO3)o1`, `Nc1c(-c2csc(-c3ccncc3)n2)c(=O)[nH]c2ccc(Cl)cc12` is higher in melting point: 140 to 141 °C for the first, > 220 °C for the second.

First: CCOC(=O)c1c(C)nn(-c2ccccn2)c1N
Second: CCc1nn(-c2ccccn2)c2nc3cc(F)c(F)cc3c(Cl)c12
The melting point of the first is lower: 80 to 81 °C for the first, 160 to 161 °C for the second.

First: CCCCCCCCCCCCCCCCCC(=O)c1ccc(O)c(C(=O)O)c1
Second: CCCCCCCCCCCCCCCCCCOC(=O)C(N)Cc1ccc(O)cc1 (stereo not given)
The melting point of the first is higher: 128 to 132 °C for the first, 80 to 83 °C for the second.

Compared with `Cn1c(C(F)(F)F)cc(=O)n(-c2c(F)cc(Cl)c3c2OC(C)(C)C3=O)c1=O`, `Cn1c(C(F)(F)F)cc(=O)n(-c2c(F)cc(Cl)c3[nH]c(=O)oc23)c1=O` is lower in melting point: 160 to 162 °C for the first, 67 to 71 °C for the second.

Compared with `CC(O)=C(C#N)C(=O)Nc1ccc(OC(F)(F)F)c(Br)c1`, `CC(C)OC(=O)C(=O)Nc1cc(Cl)ccc1O` is higher in melting point: 178 to 179 °C for the first, > 300 °C for the second.

First: CN(Cc1cccc(-c2ccc(CC3SC(=O)NC3=O)cc2)c1)C(=O)CCCCC(=O)c1ccccc1 (stereo not given)
Second: c1ccc2cc(CSCc3ccc4ccccc4c3)ccc2c1
The melting point of the first is lower: 48 °C for the first, 119 to 121 °C for the second.

First: CNC(=S)N(C)c1ccc(Cl)nc1
Second: Cc1cc(C)nc(NC(=O)N(C)C)c1
The melting point of the first is lower: 87.5 to 88 °C for the first, 105 to 108 °C for the second.

First: CC(C)Oc1cccc(Nc2cc(-c3c[nH]nc3-c3ccccn3)ccn2)c1
Second: CC1(C)COC(c2ccc(-c3ccc4cc(O)ccc4c3)cc2)=N1
The melting point of the first is lower: 218 °C for the first, 221 to 223 °C for the second.

Compared with `O=C(CCCl)Nc1ccc2c(c1)C(=O)c1cc(NC(=O)CCCl)ccc1C2=O`, `CC(=O)Nc1ccc(/C=C\COCCCCCCNCC(O)c2ccc(O)c(CO)c2)cc1` (stereo not given) is lower in melting point: 281 °C for the first, 103 to 108 °C for the second.

First: O=C(CC1(S(=O)c2ccc(Oc3ccc(F)cc3)cc2)CCOCC1)NO (stereo not given)
Second: CN(CCOc1ccccc1C(N)=O)CCc1ccc([N+](=O)[O-])cc1
The melting point of the first is higher: 120 °C for the first, 116 to 118 °C for the second.

First: CCOC(=O)c1oc2cc(O)c(O)cc2c1C
Second: CCc1c(CO)[nH]c(=O)c(I)c1Oc1cc(C)cc(C)c1
The melting point of the first is higher: 212 to 214 °C for the first, 70 °C for the second.

First: C=CCOC(=O)CC(=O)NC1C(=O)N2C1SC(C)(C)C2C(=O)OCC=C (stereo not given)
Second: CC(C)(C)OC(=O)C=C(c1ccc(C#N)cc1)n1ccnc1
The melting point of the first is lower: 59 to 60 °C for the first, 151 to 153 °C for the second.

Compared with `CC1CC(c2cc3cccc(F)c3s2)CCN1` (stereo not given), `CC(C)(C)OC(=O)c1ncn2c1cc(C(=O)N1CCNCC1)c1cc(Cl)ccc12` is higher in melting point: 45 to 47 °C for the first, 239 to 240 °C for the second.

First: CCCCCCCCCCCCCCCCOCC(CNS(=O)(=O)CCCCl)COC (stereo not given)
Second: Cc1nc(-c2cc(C)c(OCCCc3cc(C(F)(F)F)no3)c(C)c2)no1
The melting point of the first is lower: 44 to 46.5 °C for the first, 62 to 64.5 °C for the second.

First: COc1ccc(N2CCN(c3c(C)c(C)c4c(c3C)C(c3ccoc3)C(C)(C)O4)CC2)cc1 (stereo not given)
Second: CN(C)C=Nc1nc2ncn(C)c(=S)n2n1
The melting point of the first is lower: 110 to 113 °C for the first, > 300 °C for the second.

Reference: a melting point compilation (Tetko et al.; mined from patent text by program, amines drawn as free bases though some values may be those of a salt)
